Values of other authors as cited in patent US6372707B1, “Cleaning compositions” (Lever Brothers Company, division of Conopco, Inc., priority 1997, dated 2002).

Conditions: for Water Solubility (g/100 g): grams of solid to form a saturated solution in 100 grams of water at 20° C.

| SMILES | Water Solubility (g/100 g) | solubility in water (at 20° C.) |
| --- | --- | --- |
| O=BO[O-].[Na+] [Sodium perborate anhydrous] | 3.7 g/100 g |  |
| NC(N)=O [Urea] | >100 g/100 g | exceeding 100 gms per 100 ml water |
| O=P(O)(O)OP(=O)(O)OP(=O)(O)O [Sodium tripolyphosphate anhydrous] | 15 g/100 g |  |
